Measurements from the supplement of paper PMC4862054.

Key:
Settings in all cases: incubation time: 72 h
[1] = test system: HCC1143; test: normalised response (% of control), CellTiter-Glo; higher = more viable cells (100 = DMSO, 0 = benzethonium chloride kill control)
Experimental: (§1)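 DSRT, 72 h incubation, CellTox Green / CellTiter-Glo readout. Signal is normalised to DMSO and benzethonium chloride controls. Value is the normalised response at dose 3.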

[2] = test system: CAL-120; test: as above
Experimental: as §1

[3] = test system: Hs578T; test: as above
Experimental: as §1

[4] = test system: MCF-10A; test: as above
Experimental: as §1

[5] = test system: HCC1937; test: as above
Experimental: as §1

[6] = test system: MDA-MB-468; test: as above
Experimental: as §1

[7] = test system: MDA-MB-436; test: as above
Experimental: as §1

[8] = test system: BT-549; test: as above
Experimental: as §1

[9] = test system: HDQ-P1; test: as above
Experimental: as §1

[10] = test system: MFM-223; test: as above
Experimental: as §1

[11] = test system: SK-BR-3; test: as above
Experimental: as §1

[12] = test system: HCC1599; test: as above
Experimental: as §1

[13] = test system: DU-4475; test: as above
Experimental: as §1

[14] = test system: BT-474; test: as above
Experimental: as §1

[15] = test system: CAL-85-1; test: as above
Experimental: as §1

[16] = test system: CAL-148; test: as above
Experimental: as §1

[17] = test system: CAL-51; test: as above
Experimental: as §1

[18] = test system: MDA-MB-453; test: as above
Experimental: as §1

[19] = test system: MDA-MB-231; test: as above
Experimental: as §1

[20] = test system: HCC1143; test: normalised response (% of control), CellTox Green; higher = less cell death (100 = DMSO, 0 = benzethonium chloride kill control)
Outline: (§2)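 Every value is a normalised signal taken at one concentration of a dilution series. Compound was placed in 384-well plates at 5 concentrations in 10-fold steps over a compound-specific 10,000-fold range, and 20 µl of breast cancer cell suspension was seeded onto it. After 72 h, CellTox Green fluorescence (485/520 nm) was measured first and CellTiter-Glo luminescence second, following 10 min at room temperature. Each plate was scaled to 0.1 % DMSO (100) and a positive kill control (0).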

[21] = test system: CAL-120; test: as above
Outline: as §2

[22] = test system: MCF-10A; test: as above
Outline: as §2

[23] = test system: HCC1937; test: as above
Outline: as §2

[24] = test system: MDA-MB-468; test: as above
Outline: as §2

[25] = test system: BT-549; test: as above
Outline: as §2

[26] = test system: HDQ-P1; test: as above
Outline: as §2

[27] = test system: MFM-223; test: as above
Outline: as §2

[28] = test system: HCC1599; test: as above
Outline: as §2

[29] = test system: DU-4475; test: as above
Outline: as §2

[30] = test system: BT-474; test: as above
Outline: as §2

[31] = test system: CAL-85-1; test: as above
Outline: as §2

[32] = test system: CAL-148; test: as above
Outline: as §2

[33] = test system: CAL-51; test: as above
Outline: as §2

[34] = test system: MDA-MB-453; test: as above
Outline: as §2

[35] = test system: MDA-MB-231; test: as above
Outline: as §2

[36] = test system: MDA-MB-436; test: as above
Outline: as §2

[37] = test system: Hs578T; test: as above
Outline: as §2

Molecule `CC(=O)OC[C@H]1O[C@@H]([S-])[C@H](OC(C)=O)[C@@H](OC(C)=O)[C@@H]1OC(C)=O.CCP(CC)CC.[Au+]` [Auranofin] (25 nM) has a normalised response [1] of 104%, a normalised response [2] of 100% and a normalised response [3] of 103%. The normalised response [4] was 104%, the normalised response [5] was 93.8% and the normalised response [6] was 103%. For the same molecule, the normalised response [7] was 103%, the normalised response [8] was 93.1% and the normalised response [9] was 101%. For the same molecule, the normalised response [10] was 97.8%, the normalised response [11] was 101% and the normalised response [12] was 89.1%. The normalised response [13] was 98.2%, the normalised response [14] was 96.8% and the normalised response [15] was 99%. The normalised response [16] was 111%, the normalised response [17] was 92.5% and the normalised response [18] was 104%. For the same molecule, the normalised response [19] was 103%, the normalised response [20] was 88.9% and the normalised response [21] was 110%. It also gave a normalised response [22] of 62.3%, a normalised response [23] of 113% and a normalised response [24] of 117%. It also gave a normalised response [25] of 110%, a normalised response [26] of 93.8% and a normalised response [27] of 102%. The normalised response [28] was 111%, the normalised response [29] was 112% and the normalised response [30] was 105%. It also gave a normalised response [31] of 122%, a normalised response [32] of 108% and a normalised response [33] of 100%. It also gave a normalised response [34] of 109% and a normalised response [35] of 123%.

Molecule `O=C(CCBr)N1CCN(C(=O)CCBr)CC1` [Pipobroman] (100 nM) has a normalised response [1] of 105%, a normalised response [2] of 102% and a normalised response [3] of 105%. The normalised response [4] was 106%, the normalised response [5] was 106% and the normalised response [6] was 102%. For the same molecule, the normalised response [7] was 91.5%, the normalised response [8] was 97.6% and the normalised response [9] was 102%. The normalised response [10] was 103%, the normalised response [11] was 107% and the normalised response [12] was 115%. The normalised response [13] was 106%, the normalised response [14] was 102% and the normalised response [15] was 101%. It also gave a normalised response [16] of 105%, a normalised response [17] of 88% and a normalised response [18] of 93.2%. The normalised response [19] was 105%, the normalised response [20] was 108% and the normalised response [21] was 101%. For the same molecule, the normalised response [22] was 84.8%, the normalised response [36] was 101% and the normalised response [25] was 70.2%. The normalised response [26] was 107%, the normalised response [27] was 103% and the normalised response [28] was 96.6%. It also gave a normalised response [29] of 101%, a normalised response [30] of 87.5% and a normalised response [31] of 109%. The normalised response [32] was 105%, the normalised response [33] was 101% and the normalised response [35] was 94.4%.

`Cc1cccc(-c2nn3c(c2-c2ccnc4ccc(C(N)=O)cc24)CCC3)n1` [Galunisertib] (10 nM) gave a normalised response [1] of 103%, a normalised response [2] of 109% and a normalised response [3] of 103%. The normalised response [4] was 111%, the normalised response [5] was 101% and the normalised response [6] was 107%. It also gave a normalised response [7] of 106%, a normalised response [8] of 104% and a normalised response [9] of 104%. For the same molecule, the normalised response [10] was 106%, the normalised response [11] was 110% and the normalised response [12] was 102%. It also gave a normalised response [13] of 108%, a normalised response [14] of 108% and a normalised response [15] of 96.8%. It also gave a normalised response [16] of 112%, a normalised response [17] of 120% and a normalised response [18] of 110%. The normalised response [19] was 113%, the normalised response [20] was 70.5% and the normalised response [21] was 105%. The normalised response [37] was 100%, the normalised response [22] was 82.4% and the normalised response [23] was 123%. The normalised response [24] was 101%, the normalised response [36] was 104% and the normalised response [25] was 114%. The normalised response [27] was 107%, the normalised response [28] was 116% and the normalised response [29] was 109%. For the same molecule, the normalised response [30] was 103%, the normalised response [31] was 107% and the normalised response [32] was 106%. The normalised response [33] was 114%, the normalised response [34] was 103% and the normalised response [35] was 116%.
